Reference: PubChem BioAssay (NCI)
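Step 1: Grow cells in 96-well plates. Step 2: Expose to compound for 48 hours at 5 concentrations. Step 3: Interpolate endpoints linearly; if unreached, use highest concentration. Here, GI50 denotes the concentration required for 50% inhibition of growth. TGI: concentration producing complete growth inhibition.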

Legend:
Assay in all cases: DTP human tumour cell line panel, 48 h
HOP-62 NSCLC = tested on: HOP-62 NSCLC
EKVX NSCLC = tested on: EKVX NSCLC
HCC-2998 colon = tested on: HCC-2998 colon
HCT-116 colon = tested on: HCT-116 colon
HCT-15 colon = tested on: HCT-15 colon
HL-60(TB) leukemia = tested on: HL-60(TB) leukemia
HT29 colon = tested on: HT29 colon
IGROV1 ovarian = tested on: IGROV1 ovarian
KM12 colon = tested on: KM12 colon
M14 melanoma = tested on: M14 melanoma
MCF7 breast = tested on: MCF7 breast
MDA-MB-435 = tested on: MDA-MB-435
NCI/ADR-RES ovarian = tested on: NCI/ADR-RES ovarian
OVCAR-3 ovarian = tested on: OVCAR-3 ovarian
OVCAR-4 ovarian = tested on: OVCAR-4 ovarian
RPMI-8226 leukemia = tested on: RPMI-8226 leukemia
SR leukemia = tested on: SR leukemia
SW-620 colon = tested on: SW-620 colon
NCI-H226 lung = tested on: NCI-H226 lung

SMILES | GI50 (HOP-62 NSCLC) [µM] | TGI (HOP-62 NSCLC) [µM] | TGI (EKVX NSCLC) [µM] | TGI (HCC-2998 colon) [µM] | TGI (HCT-116 colon) [µM] | TGI (HCT-15 colon) [µM] | TGI (HL-60(TB) leukemia) [µM] | TGI (HT29 colon) [µM] | TGI (IGROV1 ovarian) [µM] | TGI (KM12 colon) [µM] | TGI (M14 melanoma) [µM] | TGI (MCF7 breast) [µM] | TGI (MDA-MB-435) [µM] | TGI (NCI/ADR-RES ovarian) [µM] | TGI (OVCAR-3 ovarian) [µM] | TGI (OVCAR-4 ovarian) [µM] | TGI (RPMI-8226 leukemia) [µM] | TGI (SR leukemia) [µM] | TGI (SW-620 colon) [µM] | TGI (NCI-H226 lung) [µM]
Cc1cc(Nc2ccc(Cl)cc2)nc(NCCCNc2ccnc3cc(Cl)ccc23)n1 | 1.53 | 3.07 |  |  |  |  |  |  |  |  |  |  |  |  |  |  |  |  |  | 
NC(Cc1ccccc1CP(=O)(O)O)C(=O)O (stereo not drawn) |  |  | > 100 | > 100 | > 100 | > 100 | > 100 | > 100 | > 100 | > 100 | > 100 | > 100 | > 100 | > 100 | > 100 | > 100 | > 100 | > 100 | > 100 | 
C/C(=N\NC(=S)N1CCOCC1)c1nc2ncccc2[nH]1 |  | 96 | > 100 | > 100 | > 100 | > 100 | > 100 | > 100 | > 100 | > 100 | > 100 | 80.4 | > 100 | > 100 | > 100 | > 100 | > 100 | > 100 | > 100 | > 100
